Source: patent US6908902B2, “Treatment of neurological dysfunction comprising fructopyranose sulfamates and erythropoietin” (Ortho-McNeil Pharmaceutical, Inc., priority 2001, dated 2005)

Legend:
Type in all cases: cell-based
[1] = test system: Rat Cortical Cultures; assay: Array Scan Assay, Neurite Outgrowth (Neuron-specific); conditions: mean of eight observations
From the text: (§1) Dissociated hippocampal and cortical cell cultures were established from embryonic Day 18 rat fetuses as previously described (Mattson et al., 1994). Briefly, fetuses were removed via cesarean section from pregnant rats (Sprague-Dawley) and anesthetized with halothane according to the AVMA Panel on Euthanasia. Fetuses were decapitated and the brains were removed and placed in HEPES-buffered Hank's Balanced Salt solution (HBSS; Gibco). The hippocampi and cortices were dissected out and pooled according to tissue-type. Tissue was trypsinized for fifteen minutes (1 mg/ml trypsin-HBSS; Worthington), rinsed with fresh HBSS, incubated in trypsin inhibitor (1 mg/ml; Sigma) for five minutes, rinsed again with fresh HBSS and then triturated in 1 ml fresh HBSS with a fire-polished glass pipette. Dissociated cells were seeded at 20,000 cells (Array Scan Assay) and 30,000 cells (MAP2-FITC assay)/well onto poly-D-lysine coated 96-well plates (Collaborative BioScience). Each well contained 100 μl of Eagle's Minimal Essential Media (MEM; Gibco) supplemented with 26 mM NaHCO3 (Sigma), 56 mM glucose (Sigma), 15 mM KCl (Sigma), 1 mM sodium pyruvate (Sigma), 1.1 mM L-glutamine (Sigma), 10% (v/v) heat-inactivated fetal bovine serum (Hyclone), and 0.001% gentamicin sulfate (Sigma) (pH 7.4). Cells were allowed to attach for twenty-four hours in a humidified 37° C. 5% CO2 incubator before experimental treatment. The culture media was aspirated and exchanged with fresh media every three days.
Twenty-four hours after plating, rat cerebral cortical cell cultures, prepared as described above, were treated with vehicle (phosphate buffered saline+0.1% bovine serum albumin; Sigma), topiramate, EPO (rhEPO; 50 μM stock in 0.2 M citrate, 0.585 g/L NaCl diluted to appropriate concentrations in phosphate buffered saline+0.1% bovine serum albumin (BSA; Sigma)) or a combination of topiramate and EPO. On the third day in culture, the media was aspirated off and replaced with fresh media and test compound.
Culture media (prepared as described above) was aspirated and replaced with formaldehyde/Hoechst solution (fix cells and stain nuclei). Cultures were incubated in this solution for twenty minutes, then washed with permeabilization/wash/antibody (PWA) buffer. The buffer solution was aspirated and 100 μl of primary antibody (rabbit polyclonal IgG; specific for an epitope present only in neurons and neurites) was added to each well. The cultures were incubated for 60 minutes, then washed with PWA buffer. The buffer solution was again aspirated and 100 μl of secondary antibody (Alexa Fluor 488 conjugated goat anti-rabbit IgG) was added to each well. The cultures were incubated for 60 minutes and then washed with PWA buffer, followed by phosphate buffered saline (PBS) solution.
100 μl PBS-CM were added to each well, the plates were sealed and fluorescence was read on the Array Scan II System. (All reagents for this measurement were provided by the neurite outgrowth hit kit # K07-0001-1, Cellomics Inc.) The Array Scan algorithm for neurite outgrowth calculates the neurite outgrowth index for each field per well. This number represents the number of neurons with neurites divided by the total number of neurons in the field.
The ability of rhEPO, topiramate (TPM) and the combination of rhEPO and topiramate to increase neurite outgrowth in rat cortical cell cultures was determined according to the procedure described above, with results as listed in Table 1. For each dosage concentration, the measured value in the Table represents the mean percent change of eight experimental observations (from vehicle control). The abbreviation NT, as used in the Table below represents a concentration not tested.

[2] = test system: Rat Hippocampal Cultures; assay: Neurite Outgrowth MAP2-FITC Assay for Rat Hippocampal Cells; conditions: one week in culture, mean of eight observations
From the text: as §1
(§2) Twenty-four hours after plating, rat hippocampal cell cultures, prepared as in Example 1, were treated with vehicle (phosphate buffered saline+0.1% bovine serum albumin; Sigma), topiramate, EPO (rhEPO; 50 μM stock in 0.2 M citrate, 0.585 g/L NaCl diluted to appropriate concentrations in phosphate buffered saline+0.1% bovine serum albumin (BSA; Sigma)) or a combination of topiramate and EPO. On the third day in culture, the media was aspirated off and replaced with fresh media and test compound. At one week in culture, the cells were fixed with 10% phosphate-buffered formalin for fifteen minutes, then rinsed with phosphate buffered saline and placed in blocking serum for thirty minutes (horse serum; 1:50 dilution in phosphate buffered saline; Vector Labs). Cultures were rinsed again with phosphate buffered saline and then incubated in primary antibody for two hours (microtubule-associated protein-2 (MAP-2) is a selective marker for dendritic processes; anti-mouse monoclonal (Chemicon); 1:1000 dilution of MAP-2 in antibody diluent (Zymed)). Negative control wells were incubated in antibody diluent alone. Background signal was determined by blank wells (cell-free) incubated with or without antibody. Cultures were rinsed again with phosphate buffered saline and then placed in fluorescein-labeled secondary antibody for 1 hr (FITC; anti-mouse IgG; rat adsorbed; 1:50 dilution in DPBS; Vector Labs). Cultures were rinsed a final time with phosphate buffered saline. The plates were then read on a Cytofluor 4000 fluorescence plate reader. Neurite outgrowth was expressed as percent change from control (vehicle; mean fluorescence±SEM).
The ability of rhEPO, topiramate and the combination of rhEPO and topiramate to increase neurite outgrowth in rat hippocampal cultures was determined according to the procedure described above, with results as listed in Table 2. For each case or treatment, the measured value in the Table represents the mean percent change of eight experimental observations (from vehicle control). The abbreviation NT, as used in Table 2 represents a concentration not tested.

[3] = test system: Rat Cortical Cultures; assay: Neurite Outgrowth MAP2-FITC Assay for Rat Cortical Cells; conditions: one week in culture, mean of eight observations
From the text: as §1
as §2, with “cortical” for “hippocampal”, “one hour” for “1 hr”
The ability of rhEPO, topiramate and the combination of rhEPO and topiramate to increase neurite outgrowth in rat cortical cultures was determined according to the procedure described above, with results as listed in Table 3. For each case or treatment, the measured value in the Table represents the mean percent change of eight experimental observations (from vehicle control). The abbreviation NT, as used in Table 3 represents a concentration not tested.

[4] = Concentration 1 pM (rhEPO concentration in combinations)
[5] = Concentration 10 pM (rhEPO concentration in combinations)
[6] = Concentration 100 fM (rhEPO concentration in combinations)
[7] = Concentration 1 fM (rhEPO concentration in combinations)
[8] = Concentration 10 fM (rhEPO concentration in combinations)

Row | Molecule | Neurite outgrowth, mean percent change from vehicle control (Measured) [1, 4] [%] | Neurite outgrowth, mean percent change from vehicle control (Measured) [1, 5] [%] | Neurite outgrowth, mean percent change from vehicle control (Measured) ([1]; Concentration 100 pM) [%] | Neurite outgrowth, mean percent change from vehicle control (Measured) [1, 6] [%] | Neurite outgrowth, mean percent change from vehicle control (Measured) [2, 4] [%] | Neurite outgrowth, mean percent change from vehicle control (Measured) [2, 5] [%] | Neurite outgrowth, mean percent change from vehicle control (Measured) ([2]; Concentration 100 pM) [%] | Neurite outgrowth, mean percent change from vehicle control (Measured) [2, 6] [%] | Neurite outgrowth, mean percent change from vehicle control (Measured) [3, 4] [%] | Neurite outgrowth, mean percent change from vehicle control (Measured) [3, 5] [%] | Neurite outgrowth, mean percent change from vehicle control (Measured) ([3]; Concentration 100 pM) [%] | Neurite outgrowth, mean percent change from vehicle control (Measured) [3, 6] [%] | Neurite outgrowth, mean percent change from vehicle control (Measured) [1, 7] [%] | Neurite outgrowth, mean percent change from vehicle control (Measured) [1, 8] [%] | Neurite outgrowth, mean percent change from vehicle control (Measured) [2, 7] [%] | Neurite outgrowth, mean percent change from vehicle control (Measured) [2, 8] [%] | Neurite outgrowth, mean percent change from vehicle control (Measured) [3, 7] [%] | Neurite outgrowth, mean percent change from vehicle control (Measured) [3, 8] [%]
1 | CC1(C)O[C@@H]2[C@@H](CO[C@@]3(COS(N)(=O)=O)OC(C)(C)O[C@@H]23)O1 [Topiramate, 2,3:4,5-bis-O-(1-methylethylidene)-β-D-fructopyranose sulfamate, reference compound] | 0 | 20 | 12 | 4 | 14 | 5 | −9 | 33 | 23 | 30 | 37 | 24 | – | – | – | – | – | –
2 | rhEPO: Recombinant human erythropoietin; amino acid sequence identical to that of human urinary erythropoietin | 9 | 11 | – | 28 | 20 | 21 | – | 12 | 19 | 24 | – | 10 | 29 | −1 | 21 | 15 | −14 | −2
